# Activity calls are given as the source filed them. The rule behind the calls is not given here.
# How the values were obtained:
# HCT-116 = experiment: Antiproliferative activity against human HCT116 cells incubated for 48 hrs; format: functional, cell-based; conditions: HCT-116, 48 h
# U-87 MG = experiment: Antiproliferative activity against human U87MG cells incubated for 48 hrs; format: functional, cell-based, U-87MG ATCC
# NCI-H460 [1] = experiment: Antiproliferative activity against human NCI-H460 cells incubated for 48 hrs; format: functional, cell-based; conditions: NCI-H460, 48 h
# MCF7 = experiment: Antiproliferative activity against human MCF7 cells incubated for 48 hrs; format: functional, cell-based; conditions: MCF7, 48 h
# NCI-H460 [2] = experiment: Inhibition of F0 subunit in F0F1 ATP synthase in human NCI-H460 cells assessed as inhibition of oxygen consumption rate at 1 uM by seahorse XFe96 analyser based assay; format: cell-based
# NCI-H460 [3] = experiment: Antitumor activity against human NCI-H460 cells xenografted in nude mouse assessed as decrease in tumor volume at 2.5 mg/kg, ip administered every other day for 21 days measured every 3 days; format: functional, organism-based
# NCI-H460 [4] = experiment: Induction of apoptosis in human NCI-H460 cells assessed as late apoptotic cells at 4 uM by Annexin V/PI staining based flow cytometric analysis (reference value: 1.17%); format: functional
# NCI-H460 [5] = experiment: Induction of apoptosis in human NCI-H460 cells assessed as viable cells at 2 uM by Annexin V/PI staining based flow cytometric analysis (reference value: 95.3%); format: functional; conditions: read-out: Activity
# NCI-H460 [6] = experiment: Anti-OXPHOS activity in human NCI-H460 cells assessed as inhibition of oxygen consumption rate at 8 uM in presence of uncoupling agent, FCCP by seahorse XFe96 analyser based assay
# NCI-H460 [7] = experiment: Induction of apoptosis in human NCI-H460 cells assessed as late apoptotic cells at 2 uM by Annexin V/PI staining based flow cytometric analysis (reference value: 1.17%); format: functional
# NCI-H460 [8] = experiment: Induction of apoptosis in human NCI-H460 cells assessed as necrotic cells at 4 uM by Annexin V/PI staining based flow cytometric analysis (reference value: 2.75%); format: functional
# [9] = Toxicity in nude mouse xenografted with human NCI-H460 cells assessed as body weight loss at 2.5 to 5 mg/kg, ip administered every other day for 21 days; format: organism-based; conditions: in vivo, 504 h
# NCI-H460 [10] = experiment: Induction of apoptosis in human NCI-H460 cells assessed as early apoptotic cells at 2 uM by Annexin V/PI staining based flow cytometric analysis (reference value: […]); format: functional
# [11] = Toxicity in nude mouse xenografted with human NCI-H460 cells assessed as mortality at 5 mg/kg, ip administered every other day for 21 days; format: organism-based; conditions: in vivo, 504 h
# NCI-H460 [12] = experiment: Antitumor activity against human NCI-H460 cells xenografted in nude mouse assessed as inhibition of tumor mass at 2.5 mg/kg, ip administered every other day for 21 days measured every 3 days; format: functional
# NCI-H460 [13] = experiment: Induction of apoptosis in human NCI-H460 cells assessed as viable cells at 4 uM by Annexin V/PI staining based flow cytometric analysis (reference value: 95.3%); format: functional; conditions: read-out: Activity
# NCI-H460 [14] = experiment: Induction of apoptosis in human NCI-H460 cells assessed as early apoptotic cells at 4 uM by Annexin V/PI staining based flow cytometric analysis (reference value: […]); format: functional
# NCI-H460 [15] = experiment: Induction of apoptosis in human NCI-H460 cells assessed as necrotic cells at 2 uM by Annexin V/PI staining based flow cytometric analysis (reference value: 2.75%); format: functional
# NCI-H460 [16] = experiment: Antiproliferative activity against human NCI-H460 cells assessed as inhibition of cell growth at 32 uM incubated for 3 hrs; format: functional, cell-based
# NCI-H460 [17] = experiment: Anti-OXPHOS activity in human NCI-H460 cells assessed as inhibition of oxygen consumption rate at 8 uM by seahorse XFe96 analyser based assay
# NCI-H460 [18] = experiment: Induction of apoptosis in human NCI-H460 cells by Annexin V/PI staining based flow cytometric analysis; format: functional, cell-based
# NCI-H460 [19] = experiment: Anti-OXPHOS activity in human NCI-H460 cells assessed as inhibition of oxygen consumption rate at 4 uM incubated for 1 hr by seahorse XFe96 analyser based assay relative to control
# NCI-H460 [20] = experiment: Anti-OXPHOS activity in human NCI-H460 cells assessed as inhibition of mitochondrial oxidative phosphorylation by seahorse XFe96 analyser based assay; conditions: Mitochondria
# [21] = Toxicity in nude mouse xenografted with human NCI-H460 cells assessed as mortality at 10 mg/kg, ip administered every other day for 21 days; format: organism-based; conditions: in vivo, 504 h
# NCI-H460 [22] = experiment: Antitumor activity against human NCI-H460 cells xenografted in nude mouse assessed as inhibition of tumor mass at 5 mg/kg, ip administered every other day for 21 days measured every 3 days; format: functional
# NCI-H460 [23] = experiment: Antitumor activity against human NCI-H460 cells xenografted in nude mouse assessed as decrease in tumor volume at 5 mg/kg, ip administered every other day for 21 days measured every 3 days; format: functional, organism-based
# [24] = Toxicity in nude mouse xenografted with human NCI-H460 cells assessed as body weight loss at 5 to 10 mg/kg, ip administered every other day for 21 days; format: organism-based; conditions: in vivo, 504 h
structure (smiles),measurement,setting,value
CC[C@H]1CCC[C@H](O[C@H]2CC[C@H](N(C)CCC[P+](c3ccccc3)(c3ccccc3)c3ccccc3)[C@@H](C)O2)[C@@H](C)C(=O)C2=C[C@@H]3[C@@H](C=C[C@@H]4C[C@@H](O[C@@H]5O[C@@H](C)[C@H](OC)[C@@H](OC)[C@H]5OC)C[C@@H]34)[C@@H]2CC(=O)O1,IC50,HCT-116,0.1 µM
same,IC50,U-87 MG,1.3 µM
same,IC50,NCI-H460 [1],2.7 µM
same,IC50,MCF7,4.1 µM
CC[C@H]1CCC[C@H](O[C@H]2CC[C@H](N(C)C)[C@@H](C)O2)[C@@H](C)C(=O)C2=C[C@@H]3[C@@H](C=C[C@@H]4C[C@@H](O[C@@H]5O[C@@H](C)[C@H](OC)[C@@H](OC)[C@H]5OC)C[C@@H]34)[C@@H]2CC(=O)O1 [SPINOSYN A],IC50,HCT-116,11.1 µM
same,IC50,U-87 MG,96.5 µM
same,IC50,NCI-H460 [1],67.5 µM
same,IC50,MCF7,17.9 µM
CC[C@H]1CCC[C@H](OC(=O)C[n+]2cccc(C(N)=O)c2)[C@@H](C)C(=O)C2=C[C@@H]3[C@@H](C=C[C@@H]4C[C@@H](O[C@@H]5O[C@@H](C)[C@H](OC)[C@@H](OC)[C@H]5OC)C[C@@H]34)[C@@H]2CC(=O)O1,IC50,MCF7,> 100 µM
CC[C@H]1CCC[C@H](OC(=O)CCC[P+](c2ccccc2)(c2ccccc2)c2ccccc2)[C@@H](C)C(=O)C2=C[C@@H]3[C@@H](C=C[C@@H]4C[C@@H](O[C@@H]5O[C@@H](C)[C@H](OC)[C@@H](OC)[C@H]5OC)C[C@@H]34)[C@@H]2CC(=O)O1,IC50,HCT-116,0.8 µM
same,IC50,U-87 MG,2.7 µM
same,IC50,NCI-H460 [1],1.5 µM
same,IC50,MCF7,3.1 µM
CC[C@H]1CCC[C@H](OC(=O)C[n+]2ccccc2)[C@@H](C)C(=O)C2=C[C@@H]3[C@@H](C=C[C@@H]4C[C@@H](O[C@@H]5O[C@@H](C)[C@H](OC)[C@@H](OC)[C@H]5OC)C[C@@H]34)[C@@H]2CC(=O)O1,IC50,MCF7,> 100 µM
CC[C@H]1/C=C/C=C/C[C@@H](C)[C@H](O)[C@@](C)(O)C(=O)[C@@H](C)[C@H](O)[C@@H](C)C(=O)[C@@H](C)[C@H](O)[C@@H](C)/C=C/C(=O)O[C@@H]2[C@H](C)[C@H](CC1)O[C@]1(CC[C@H](C)[C@H](C[C@@H](C)O)O1)[C@H]2C,inhibition,NCI-H460 [2],Active
CC[C@H]1CCC[C@H](O[C@H]2CC[C@H](N(C)CCCCCC[P+](c3ccccc3)(c3ccccc3)c3ccccc3)[C@@H](C)O2)[C@@H](C)C(=O)C2=C[C@@H]3[C@@H](C=C[C@@H]4C[C@@H](O[C@@H]5O[C@@H](C)[C@H](OC)[C@@H](OC)[C@H]5OC)C[C@@H]34)[C@@H]2CC(=O)O1.[Br-],inhibition,NCI-H460 [3],Active
same,Activity,NCI-H460 [4],6.99%
same,viability at 2 µM,NCI-H460 [5],74.8%
same,IC50,HCT-116,0.3 µM
same,inhibition,NCI-H460 [6],inactive
same,Activity,NCI-H460 [7],3.91%
same,Activity,NCI-H460 [8],1.69%
same,IC50,U-87 MG,1.3 µM
same,Activity,[9],Non-Toxic
same,Activity,NCI-H460 [10],19.9%
same,Activity,[11],Toxic
same,inhibition in vivo at 2.5 mg/kg,NCI-H460 [12],14.6%
same,viability at 4 µM,NCI-H460 [13],69.3%
same,Activity,NCI-H460 [14],22%
same,IC50,NCI-H460 [1],1.6 µM
same,IC50,MCF7,2 µM
same,Activity,NCI-H460 [15],1.38%
same,inhibition,NCI-H460 [16],inactive
same,inhibition,NCI-H460 [17],Active
same,Activity,NCI-H460 [18],Dose-dependent effect
same,inhibition,NCI-H460 [19],42%
same,inhibition,NCI-H460 [20],Dose-dependent effect
CC[C@H]1CCC[C@H](O[C@H]2CC[C@H](N(C)CCCCCC[n+]3cccc(C(N)=O)c3)[C@@H](C)O2)[C@@H](C)C(=O)C2=C[C@@H]3[C@@H](C=C[C@@H]4C[C@@H](O[C@@H]5O[C@@H](C)[C@H](OC)[C@@H](OC)[C@H]5OC)C[C@@H]34)[C@@H]2CC(=O)O1,IC50,MCF7,30.5 µM
CC[C@H]1CCC[C@H](OC(=O)CCC[n+]2ccccc2)[C@@H](C)C(=O)C2=C[C@@H]3[C@@H](C=C[C@@H]4C[C@@H](O[C@@H]5O[C@@H](C)[C@H](OC)[C@@H](OC)[C@H]5OC)C[C@@H]34)[C@@H]2CC(=O)O1,IC50,MCF7,> 100 µM
CC[C@H]1CCC[C@H](O[C@H]2CC[C@H](N(C)CCC[n+]3ccccc3)[C@@H](C)O2)[C@@H](C)C(=O)C2=C[C@@H]3[C@@H](C=C[C@@H]4C[C@@H](O[C@@H]5O[C@@H](C)[C@H](OC)[C@@H](OC)[C@H]5OC)C[C@@H]34)[C@@H]2CC(=O)O1,IC50,MCF7,23.7 µM
CC[C@H]1CCC[C@H](O[C@H]2CC[C@H](N(C)CCC[n+]3cccc(C(N)=O)c3)[C@@H](C)O2)[C@@H](C)C(=O)C2=C[C@@H]3[C@@H](C=C[C@@H]4C[C@@H](O[C@@H]5O[C@@H](C)[C@H](OC)[C@@H](OC)[C@H]5OC)C[C@@H]34)[C@@H]2CC(=O)O1,IC50,MCF7,> 100 µM
CC[C@H]1CCC[C@H](O[C@H]2CC[C@H](N(C)CCCCCC[n+]3ccc4ccccc4c3)[C@@H](C)O2)[C@@H](C)C(=O)C2=C[C@@H]3[C@@H](C=C[C@@H]4C[C@@H](O[C@@H]5O[C@@H](C)[C@H](OC)[C@@H](OC)[C@H]5OC)C[C@@H]34)[C@@H]2CC(=O)O1.[Br-],Activity,[21],Toxic
same,Activity,NCI-H460 [4],6.98%
same,viability at 2 µM,NCI-H460 [5],84.4%
same,IC50,HCT-116,2.8 µM
same,inhibition,NCI-H460 [6],inactive
same,Activity,NCI-H460 [7],5.01%
same,Activity,NCI-H460 [8],1.58%
same,IC50,U-87 MG,2.5 µM
same,Activity,NCI-H460 [10],9.36%
same,inhibition in vivo at 5 mg/kg,NCI-H460 [22],8.8%
same,inhibition,NCI-H460 [23],Active
same,viability at 4 µM,NCI-H460 [13],70.7%
same,Activity,NCI-H460 [14],20.7%
same,IC50,NCI-H460 [1],4.6 µM
same,IC50,MCF7,8.9 µM
same,Activity,NCI-H460 [15],1.21%
same,inhibition,NCI-H460 [16],inactive
same,inhibition,NCI-H460 [17],Active
same,Activity,[24],Non-Toxic
same,Activity,NCI-H460 [18],Dose-dependent effect
same,inhibition,NCI-H460 [19],41%
same,inhibition,NCI-H460 [20],Dose-dependent effect
CC[C@H]1CCC[C@H](O[C@H]2CC[C@H](N(C)CCCCCC[n+]3ccccc3)[C@@H](C)O2)[C@@H](C)C(=O)C2=C[C@@H]3[C@@H](C=C[C@@H]4C[C@@H](O[C@@H]5O[C@@H](C)[C@H](OC)[C@@H](OC)[C@H]5OC)C[C@@H]34)[C@@H]2CC(=O)O1,IC50,HCT-116,9.8 µM
same,IC50,U-87 MG,11.2 µM
same,IC50,NCI-H460 [1],22 µM
same,IC50,MCF7,4.3 µM
CC[C@H]1CCC[C@H](OC(=O)CCC[n+]2cccc(C(N)=O)c2)[C@@H](C)C(=O)C2=C[C@@H]3[C@@H](C=C[C@@H]4C[C@@H](O[C@@H]5O[C@@H](C)[C@H](OC)[C@@H](OC)[C@H]5OC)C[C@@H]34)[C@@H]2CC(=O)O1,IC50,MCF7,> 100 µM
